Test results taken from patent publication US20240173375A1, “CHEMOTACTIC AUTOPHAGY-INHIBITING PEPTIDE, COMPOSITIONS AND METHODS RELATED THERETO” (Biotempt B.V., priority 2021, published 2024).
Read-outs that look alike come from different tables or passages of the source.

Experiments:
mTOR kinases = settings: cited from earlier work; for activators of mTOR or inhibitors of autophagy, compared with other amino acids: alone or in combination, literature search November 2011
autophagy = settings: cited from earlier work; for inhibitory effects on autophagy: human cells (Meijer et al. 2015)
p38 MAPK = assay: FPR-signaling assay: p38 MAPK phosphorylation in FPR-expressing cells stimulated with fMLP; format: cell-based
Excerpt: (§1) Both AQGV (SEQ ID NO:11) peptide effects on p38 and PKB-mediated signalling last for the full 600 seconds tested whereas the other kinases tested were not affected throughout. […] The pathway is governing the balance between proteolysis and proteogenesis regulating cytoskeleton changes affecting vascular permeability. It is shown that an autophagy-inhibiting peptide reduces p38 MAPK kinase activated changes as well as reduces PI3K/AKT/mTOR activated induced changes in cell cytoskeleton reorganization affecting endothelial cell contraction and adverse vascular permeability. Autophagy-inhibiting peptide is useful and capable of addressing adverse vascular permeability, such as manifested by edema with vascular leakage, adverse leukocyte extravasation and hypotension, tissue injury and immune responses in human subjects.

PKB (also known as AKT) = assay: FPR-signaling assay: PKB (AKT) phosphorylation in FPR-expressing cells stimulated with fMLP; format: cell-based
Excerpt: The pathway is governing the balance between proteolysis and proteogenesis regulating cytoskeleton changes affecting vascular permeability.

[1] = test system: STAT3, JNK and P42/p44MAPK/ERK1,2 kinases; assay: FPR-signaling assay: STAT3, JNK and P42/p44MAPK/ERK1,2 phosphorylation in FPR-expressing cells; format: cell-based
Excerpt: as §1

[2] = cited from earlier work
[3] = 50 mg/kg twice daily i.p.; cited from earlier work
[4] = cited from earlier work; remark: listed apart in the source
CXCR4 = molecular target: T1, CXCR4 (Homo sapiens, UniProt P61073); settings: cited from earlier work; for agonist behaviour in chemotaxis: CCRF-CEM cell line
T1 construct: In chemotaxis assays using the acute lymphoblastic leukemia cell line CCRF-CEM; endogenous in cells; host or cells: CCRF-CEM
T1 sequence (P61073 whole entry): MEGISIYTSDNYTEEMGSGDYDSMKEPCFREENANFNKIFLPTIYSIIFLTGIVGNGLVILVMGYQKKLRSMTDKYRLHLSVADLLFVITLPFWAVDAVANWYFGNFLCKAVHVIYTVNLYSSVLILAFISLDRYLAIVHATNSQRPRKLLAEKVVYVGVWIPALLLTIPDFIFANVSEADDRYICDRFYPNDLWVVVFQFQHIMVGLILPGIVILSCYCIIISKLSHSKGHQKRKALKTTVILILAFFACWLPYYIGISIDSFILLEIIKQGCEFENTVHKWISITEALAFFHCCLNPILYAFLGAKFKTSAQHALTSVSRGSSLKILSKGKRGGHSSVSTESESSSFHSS

neutrophil = settings: cited from earlier work
[5] = cited from earlier work; remark: listed apart in the source
guinea pig skin = settings: internal standard […]; cited from earlier work

## CC[C@H](C)[C@H](N)C(=O)O [L-Isoleucine]
mTOR kinases
  activators of mTOR or inhibitors of autophagy, compared with other amino acids: more potent
  Literature-based activity: mTOR kinases: activate
autophagy
  Literature-based activity: autophagy: DOWN

## CC(C)C[C@H](N)C(=O)O [L-Leucine]
mTOR kinases
  activators of mTOR or inhibitors of autophagy, compared with other amino acids: more potent
  Literature-based activity: mTOR kinases: activate
autophagy
  Literature-based activity: autophagy: DOWN
  inhibitory effects on autophagy: most prominent

## O=C(O)[C@@H]1CCCN1 [L-Proline]
mTOR kinases
  activators of mTOR or inhibitors of autophagy, compared with other amino acids: more potent
  Literature-based activity: mTOR kinases: activate
autophagy
  inhibitory effects on autophagy: most prominent

## CSCC[C@H](NC=O)C(=O)N[C@@H](CC(C)C)C(=O)N[C@@H](Cc1ccccc1)C(=O)O [fMLP, N-Formyl-L-methionyl-L-leucyl-L-phenylalanine, reference compound]
p38 MAPK; FPR-expressing cells, p<0.05 from 60 to 600 seconds
  changes in phosphorylation status of p38 MAPK on FPR-activation: significant
PKB (also known as AKT); FPR-expressing cells, p<0.05 at 600 seconds
  changes in phosphorylation status of PKB (AKT) on FPR-activation: significant
[1]; FPR-expressing cells
  changes in phosphorylation status of STAT3, JNK and P42/p44MAPK/ERK1,2 on FPR-activation: not (or not detectable)

## AQGV (tetrapeptide)
p38 MAPK; formyl-peptide related signaling
  effect on p38/p38-MK2-HSP27 and/or PI3K/AKT/mTOR pathways: attenuate
p38 MAPK; full period tested
  duration of peptide effects on p38-mediated signalling: 600 s
p38 MAPK; peptide at 20 ng/ml or 50 ng/ml, fMLP stimulation
  time at which peptide effects on p38 MAPK are detected after FPR-stimulation: 30 s
PKB (also known as AKT); bi-phasic pattern, peptide at 20 ng/ml or 50 ng/ml, fMLP stimulation
  time at which peptide effects on PKB(AKT) follow after FPR-stimulation: 300 s
PKB (also known as AKT); full period tested
  duration of peptide effects on PKB-mediated signalling: 600 s
[1]; throughout 600 seconds
  peptide effect on the other kinases tested: not affected
[2]; 20-50 mg/kg twice daily i.p. for four days, started 24 hours after IRI, dose dependent
  survival: markedly improved
[2]; four weeks after IRI, renal tissue
  CTGF up-regulation, marker of post-ischemic fibrosis: significantly less
[2]; mouse, in vivo
  tubular epithelial cell proliferation: significantly enhanced
[2]; two days after IRI
  acute tubular injury: diminished
[3]
  renal function and allograft survival: improved
[4]; 180 mg/kg (the highest dose)
  endotoxin induced increase in plasma levels of cytokines and adhesion molecule VCAM-1: significant attenuation
[4]; the highest dose
  fever and flu-like symptoms: reduced

## ASLW (CXCR4 superagonist) [peptide agonist of CXCR4]
CXCR4
  agonist behaviour in chemotaxis: superagonist
  sensitivity to the CXCR4 antagonist AMD3100: insensitive

## Acetyl-proline-glycine-proline [AcPGP]
neutrophil; ELR+ CXC chemokines are functional at nanomolar levels
  concentration level at which the chemoattractant operates: micromolar level

## LQGV (tetrapeptide) [tetrapeptide, sister compound of AQGV]
[5]; 5 mg/kg bodyweight combined with fluid resuscitation and antibiotics, severe cecal ligation and puncture, 30% without peptide
  survival: 70%
[5]; 5 mg/kg bodyweight, first 5 days after moderate cecal ligation and puncture, 20% without
  survival: 50%
[5]; mouse, in vivo
  pulmonary nuclear factor-κB activation and pulmonary damage: reduced
[5]; peritoneal lavage fluid, lungs, to a lesser extent plasma
  cytokine and E-selectin levels: reduced

## Pro-Gly-Pro [PGP]
neutrophil; unacetylated versus acetylated peptide
  potency in evoking neutrophil chemotaxis, less than AcPGP: 4-7 fold

## RSVM (CXCR4 partial agonist) [peptide agonist of CXCR4]
CXCR4
  agonist behaviour in chemotaxis: partial agonist
  sensitivity to the CXCR4 antagonist AMD3100: insensitive

## acyl-YSFKPMPLaR (YSFKPMPLXR; N-acetyl; D-Ala; chemoattractant motif; MOD_RES (1)..(1) …ON; VARIANT (9)..(9) is D-ala) [conformationally constrained decapeptide agonist analog of C5a65-74]
Guinea pig skin
  potency relative to unconstrained analog […]: at least 10 fold
